Experimental data from patent publication US9969752B2, “Inhibitors of HIF prolyl hydroxylase” (MERCK SHARP & DOHME CORP., priority 2014, dated 2018).

target: T1, Human HIF-PHD2 (Homo sapiens, UniProt Q9GZT9); assay: Inhibition of the hydroxylation of a HIF peptide by PHD2 (time resolved fluorescence, 384-well); format: biochemical; details: FLAG-tagged full length PHD2; 0.2 μM 2-oxoglutarate, 0.5 μM HIF-1α peptide; 45 minutes at room temperature; read-out: Human HIF-PHD2 IC50
T1 construct: FLAG-tagged full length PHD2 expressed in and purified from baculovirus-infected Sf9 cells; FLAG; made in house; host or cells: baculovirus-infected Sf9 cells
Protocol: To each well of a 384-well plate, 1 μL of test compounds in DMSO (final concentration ranging from 0.3 nM to 10 uM) were added into 20 μl of assay buffer (50 mM Tris pH 7.4/0.01% Tween-20/0.1 mg/ml bovine serum albumin/10 μM ferrous sulfate/1 mM sodium ascorbate/20 μg/ml catalase) containing 0.15 μg/ml FLAG-tagged full length PHD2 expressed in and purified from baculovirus-infected Sf9 cells. After a 5 min preincubation at room temperature, the enzymatic reactions were initiated by the addition of 4 μL of substrates {final concentrations of 0.2 μM 2-oxoglutarate and 0.5 μM HIF-1α peptide biotinyl-[…] […] After incubation for 45 minutes at room temperature, the reactions were terminated by the addition of a 25 μL quench/detection mix to a final concentration of 1 mM ortho-phenanthroline, 0.1 mM EDTA, 0.5 nM anti-(His)6 LANCE reagent (Perkin-Elmer Life Sciences), 100 nM AF647-labeled streptavidin (Invitrogen), and 2 μg/ml (His)6-VHL complex {S. Tan Protein Expr. Purif.

T1 sequence (Q9GZT9 whole entry): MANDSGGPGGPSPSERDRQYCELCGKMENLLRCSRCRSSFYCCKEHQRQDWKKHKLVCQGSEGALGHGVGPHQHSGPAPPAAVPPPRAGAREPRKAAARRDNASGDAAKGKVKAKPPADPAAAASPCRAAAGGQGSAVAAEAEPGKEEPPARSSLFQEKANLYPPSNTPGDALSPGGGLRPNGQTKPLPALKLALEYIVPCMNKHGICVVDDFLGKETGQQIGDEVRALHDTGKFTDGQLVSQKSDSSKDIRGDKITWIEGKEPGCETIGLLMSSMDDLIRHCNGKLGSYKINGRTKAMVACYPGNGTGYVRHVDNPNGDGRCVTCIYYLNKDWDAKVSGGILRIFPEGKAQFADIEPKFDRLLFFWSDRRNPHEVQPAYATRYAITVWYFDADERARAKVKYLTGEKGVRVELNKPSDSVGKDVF

| SMILES | IC50 [nM] |
| --- | --- |
| N#Cc1ccc2c(O)c(C(=O)NCC(=O)O)c(=O)n3c2c1OCC3Cc1ccc(C(F)(F)F)cc1 (centres unmarked) [Example 32, 2-(10-Cyano-7-hydroxy-5-oxo-3-(4-(trifluoromethyl)benzyl)-3,5-dihydro-2H-[1,4]oxazino[2,3,4-ij]quinoline-6-carboxamido)acetic acid] | 1.3 |
| Cc1ccc2c(O)c(C(=O)NCC(=O)O)c(=O)n3c2c1OCC3Cc1ccc(C(F)(F)F)cc1 (centres unmarked) [Example 33, 2-(7-Hydroxy-10-methyl-5-oxo-3-(4-(trifluoromethyl)benzyl)-3,5-dihydro-2H-[1,4]oxazino[2,3,4-ij]quinoline-6-carboxamido)acetic acid] | 17 |
| CC(=O)c1cc2c3c(c1)c(O)c(C(=O)NCC(=O)O)c(=O)n3C(Cc1ccc(C(F)(F)F)cc1)CO2 (centres unmarked) [Example 34, 2-(9-acetyl-7-hydroxy-5-oxo-3-(4-(trifluoromethyl)benzyl)-3,5-dihydro-2H-[1,4]oxazino[2,3,4-ij]quinoline-6-carboxamido)acetic acid] | 3.2 |
| CC(O)c1cc2c3c(c1)c(O)c(C(=O)NCC(=O)O)c(=O)n3C(Cc1ccc(C(F)(F)F)cc1)CO2 (centres unmarked) [Example 35, 2-(7-Hydroxy-9-(1-hydroxyethyl)-5-oxo-3-(4-(trifluoromethyl)benzyl)-3,5-dihydro-2H-[1,4]oxazino[2,3,4-ij]quinoline-6-carboxamido)acetic acid] | 12 |
| CC(C)(O)c1cc2c3c(c1)c(O)c(C(=O)NCC(=O)O)c(=O)n3C(Cc1ccc(C(F)(F)F)cc1)CO2 (centres unmarked) [Example 36, 2-(7-Hydroxy-9-(2-hydroxypropan-2-yl)-5-oxo-3-(4-(trifluoromethyl)benzyl)-3,5-dihydro-2H-[1,4]oxazino[2,3,4-ij]quinoline-6-carboxamido)acetic acid] | 17 |
| N#Cc1ccc2c(O)c(C(=O)NCC(=O)O)c(=O)n3c2c1OCC3 [Example 37, 2-(10-cyano-7-hydroxy-5-oxo-3,5-dihydro-2H-[1,4]oxazino[2,3,4-ij]quinoline-6-carboxamido)acetic acid] | 1.5 |
| CS(=O)(=O)c1ccc2c(O)c(C(=O)NCC(=O)O)c(=O)n3c2c1OCC3 [Example 38, 2-(7-Hydroxy-10-(methylsulfonyl)-5-oxo-3,5-dihydro-2H-[1,4]oxazino[2,3,4-ij]quinoline-6-carboxamido)acetic acid] | 1.6 |
| Cc1ccc2c(O)c(C(=O)NCC(=O)O)c(=O)n3c2c1OCC3 [Example 39, 2-(7-Hydroxy-10-methyl-5-oxo-3,5-dihydro-2H-[1,4]oxazino[2,3,4-ij]quinoline-6-carboxamido)acetic acid] | 12 |
| Cc1cc2c3c(c1)c(O)c(C(=O)NCC(=O)O)c(=O)n3CCO2 [Example 43, 2-(7-hydroxy-9-methyl-5-oxo-3,5-dihydro-2H-[1,4]oxazino[2,3,4-ij]quinoline-6-carboxamido)acetic acid] | 24 |
| N#Cc1ccc2c(O)c(C(=O)NCC(=O)O)c(=O)n3c2c1CCC3 [Example 44, 2-(8-Cyano-1-hydroxy-3-oxo-3,5,6,7-tetrahydropyrido[3,2,1-ij]quinoline-2-carboxamido)acetic acid] | 0.9 |
| CS(=O)(=O)c1ccc2c(O)c(C(=O)NCC(=O)O)c(=O)n3c2c1CCC3 [Example 45, 2-(1-Hydroxy-8-(methylsulfonyl)-3-oxo-3,5,6,7-tetrahydropyrido[3,2,1-ij]quinoline-2-carboxamido)acetic acid] | 1.1 |
| Cc1ccc2c(O)c(C(=O)NCC(=O)O)c(=O)n3c2c1CCC3 [Example 46, 2-(1-Hydroxy-8-methyl-3-oxo-3,5,6,7-tetrahydropyrido[3,2,1-ij]quinoline-2-carboxamido)acetic acid] | 18 |
| N#Cc1cc2c3c(c1)c(O)c(C(=O)NCC(=O)O)c(=O)n3CCC2 [Example 48, 2-(9-Cyano-1-hydroxy-3-oxo-3,5,6,7-tetrahydropyrido[3,2,1-ij]quinoline-2-carboxamido)acetic acid] | 2.6 |
| CS(=O)(=O)c1cc2c3c(c1)c(O)c(C(=O)NCC(=O)O)c(=O)n3CCC2 [Example 49, 2-(1-Hydroxy-9-(methylsulfonyl)-3-oxo-3,5,6,7-tetrahydropyrido[3,2,1-ij]quinoline-2-carboxamido)acetic acid] | 1.4 |
| O=C(O)CNC(=O)c1c(O)c2ccnc3c2n(c1=O)CC(c1ccc(C(F)(F)F)cc1)O3 (centres unmarked) [Example 51, 2-(7-Hydroxy-5-oxo-2-(4-(trifluoromethyl)phenyl)-3,5-dihydro-2H-[1,4]oxazino[2,3,4-ij][1,7]naphthyridine-6-carboxamido)acetic acid] | 13 |
| N#Cc1ccc(C2Cn3c(=O)c(C(=O)NCC(=O)O)c(O)c4cc(C#N)cc(c43)O2)cc1 (centres unmarked) [Example 52, 2-(9-Cyano-2-(4-cyanophenyl)-7-hydroxy-5-oxo-3,5-dihydro-2H-[1,4]oxazino[2,3,4-ij]quinoline-6-carboxamido)acetic acid] | 0.5 |
| O=C(O)CNC(=O)c1c(O)c2cc(Br)cc3c2n(c1=O)CC(c1ccc(Br)cc1)O3 (centres unmarked) [Example 53, 2-(9-Bromo-2-(4-bromophenyl)-7-hydroxy-5-oxo-3,5-dihydro-2H-[1,4]oxazino[2,3,4-ij]quinoline-6-carboxamido)acetic acid] | 3.5 |
| N#Cc1ccc(C2Cn3c(=O)c(C(=O)NCC(=O)O)c(O)c4c(C#N)ccc(c43)O2)cc1 (centres unmarked) [Example 54, 2-(8-Cyano-2-(4-cyanophenyl)-7-hydroxy-5-oxo-3,5-dihydro-2H-[1,4]oxazino[2,3,4-ij]quinoline-6-carboxamido)acetic acid] | 1.1 |
| O=C(O)CNC(=O)c1c(O)c2c(Br)ccc3c2n(c1=O)CC(c1ccc(Br)cc1)O3 (centres unmarked) [Example 55, 2-(8-Bromo-2-(4-bromophenyl)-7-hydroxy-5-oxo-3,5-dihydro-2H-[1,4]oxazino[2,3,4-ij]quinoline-6-carboxamido)acetic acid] | 2.5 |
| N#Cc1ccc(C2Cn3c(=O)c(C(=O)NCC(=O)O)c(O)c4ccc(C#N)c(c43)O2)cc1 (centres unmarked) [Example 56, 2-(10-Cyano-2-(4-cyanophenyl)-7-hydroxy-5-oxo-3,5-dihydro-2H-[1,4]oxazino[2,3,4-ij]quinoline-6-carboxamido)acetic acid] | 0.6 |
| O=C(O)CNC(=O)c1c(O)c2ccc(Br)c3c2n(c1=O)CC(c1ccc(Br)cc1)O3 (centres unmarked) [Example 57, 2-(10-Bromo-2-(4-bromophenyl)-7-hydroxy-5-oxo-3,5-dihydro-2H-[1,4]oxazino[2,3,4-ij]quinoline-6-carboxamido)acetic acid] | 2.7 |
| O=C(O)CNC(=O)c1c(O)c2cccc3c2n(c1=O)CC(c1ccc(C(F)(F)F)cc1)[S+]3[O-] (centres unmarked) [Example 59, 2-(7-Hydroxy-1-oxido-5-oxo-2-(4-(trifluoromethyl)phenyl)-3,5-dihydro-2H-[1,4]thiazino[2,3,4-ij]quinoline-6-carboxamido)acetic acid] | 1 |
| O=C(O)CNC(=O)c1c(O)c2cccc3c2n(c1=O)CC(c1ccc(C(F)(F)F)cc1)S3(=O)=O (centres unmarked) [Example 60, 2-(7-Hydroxy-1,1-dioxido-5-oxo-2-(4-(trifluoromethyl)phenyl)-3,5-dihydro-2H-[1,4]thiazino[2,3,4-ij]quinoline-6-carboxamido)acetic acid] | 0.8 |
| Cc1ccc2c3c1c(O)c(C(=O)NCC(=O)O)c(=O)n3CC(c1ccc(C(F)(F)F)cc1)O2 (centres unmarked) [Example 63, 2-(7-Hydroxy-8-methyl-5-oxo-2-(4-(trifluoromethyl)phenyl)-3,5-dihydro-2H-[1,4]oxazino[2,3,4-ij]quinoline-6-carboxamido)acetic acid] | 13 |
| O=C(O)CNC(=O)c1c(O)c2cccc3c2n(c1=O)CC(c1ccc(C(F)(F)F)cc1)N3 (centres unmarked) [Example 64, 2-(7-Hydroxy-5-oxo-2-(4-(trifluoromethyl)phenyl)-1,2,3,5-tetrahydropyrido[1,2,3-de]quinoxaline-6-carboxamido)acetic acid] | 4.5 |
| CN1c2cccc3c(O)c(C(=O)NCC(=O)O)c(=O)n(c23)CC1c1ccc(C(F)(F)F)cc1 (centres unmarked) [Example 65, 2-(7-Hydroxy-1-methyl-5-oxo-2-(4-(trifluoromethyl)phenyl)-1,2,3,5-tetrahydropyrido[1,2,3-de]quinoxaline-6-carboxamido)acetic acid] | 34 |

same assay, conditions: FLAG-tagged full length PHD2; 0.2 μM 2-oxoglutarate, 0.5 μM HIF-1α peptide; 45 minutes at room temperature; read-out: MS m/z (M + 1)+ and human HIF-PHD2 IC50

| SMILES | IC50 [nM] |
| --- | --- |
| O=C(O)CNC(=O)c1c(O)c2ccc(-c3ccccc3)c3c2n(c1=O)CCO3 [Example 40, 2-(7-hydroxy-5-oxo-10-phenyl-3,5-dihydro-2H-[1,4]oxazino[2,3,4-ij]quinoline-6-carboxamido)acetic acid] | 1.6 |
| O=C(O)CNC(=O)c1c(O)c2cccc3c2n(c1=O)CC(c1ccc(C(F)(F)F)cc1)[S+]3[O-] (centres unmarked) [Example 61, 2-(7-hydroxy-1-oxido-5-oxo-2-(4-(trifluoromethyl)phenyl)-3,5-dihydro-2H-[1,4]thiazino[2,3,4-ij]quinoline-6-carboxamido)acetic acid] | 1 |

same assay, conditions: Human HIF-PHD2 IC50, FLAG-tagged full length PHD2; 0.2 μM 2-oxoglutarate, 0.5 μM HIF-1α peptide; 45 minutes at room temperature

| SMILES | IC50 [nM] |
| --- | --- |
| O=C(O)CNC(=O)c1c(O)c2cc(Br)cc3c2n(c1=O)CCC3 [Example 47, 2-(9-Bromo-1-hydroxy-3-oxo-3,5,6,7-tetrahydropyrido[3,2,1-ij]quinoline-2-carboxamido)acetic acid] | 99 |
